Counter-ions that a name gives are not always drawn.

In the experiment the test system is Plasmodium falciparum 3D7 strain. Put plainly: P. falciparum 3D7 asexual blood stage assay (SYBR green readout). It is filed as cell-based. Particulars: Plasmodium falciparum, 3D7, Erythrocyte, 72 h. How it is done: Asexual Blood Stage Assay
The assay used to measure the effect of test compounds on a bloodstream stage of Plasmodium falciparum: 3D7 strain employs SYBR green as the readout. This is a dye that binds to double stranded deoxyribonucleic acid (DNA) with a resulting increase in fluorescence, allowing detection of P. falciparum DNA in infected erythrocytes, and thereby providing a measure of parasite growth and propagation.
P. falciparum Culture Maintenance
Erythrocytes (A+ blood) were prepared for both parasite culture and assay by washing 4 times with incomplete media (15.9 g RPMI 1640 (25 mM HEPES, L-glutamine), 1 g NaHCO3, 2 g glucose, 400 μL gentacin (500 mg/mL), 2 mL hypoxanthine solution (13.6 g/L in 0.1M NaOH pH 7.3) in 1 litre of media). The cells were centrifuged at 1800 g for 5 minutes, before decanting the supernatant and re-suspending in fresh incomplete media. On the final wash, the cells were re-suspended in complete media (incomplete media with 5 g/L AlbumaxII), and centrifuged at 1800 g for 3 minutes. This cell sediment was treated as 100% haematocrit.
P. falciparum 3D7 was cultured in erythrocytes at 5% haematocrit in complete media at 37° C. (1% O2, 3% CO2, balance N2). Cultures were split on a weekly basis to achieve a 1% parasitaemia in erythrocites at 5% haematocrit in fresh media. Culture media is replaced by fresh media every other day (2 times during the week).
On day 1, test compounds were added to assay plates using Echo dispensing technology ([…] and 20 points titration). 50 nL of each compound dilution was added to 50 μL of culture (5% haematocrit, 0.5% parasitaemia) and incubated for 72 h at 37° C. (1% O2, 3% CO2, balance N2). Final concentrations of test compounds ranged from 50,000 nM to 15 nM, in […].
On day 4, 10 μL SYBR green (Invitrogen S7563 supplied as 10,000× concentrate in DMSO) pre-diluted to 3× concentrate with Lysis buffer (20 mM Tris pH 7.9, 5% EDTA, 0.16% w/v, 1.6% TX100 v/v) was added to the cultures and incubated in the dark, overnight, at room temperature.
On day 5, fluorescent signal was measured using a BioTek plate reader (excitation 485 nm, emission 528 nm). All data were processed using IDBS ActivityBase. Raw data were converted into percent inhibition through linear regression by setting the high inhibition control (mefloquine) as 100% and the no inhibition control (DMSO) as 0%. Quality control criteria for passing plates were as follows: Z′>0.5, S:B>3, 30% CV(no inhibition control)<15. The formula used to calculate Z′ is: […]
All EC50 curve fitting was undertaken using the following bi-phasic two site dose response using XLfit model 300 (IDBS):
where A=100 minus the top of the upper curve 1 and the bottom of lower curve; B=Hill slope; log(C)=IC50 concentration at lower site; log(D)=IC50 concentration at upper site; x=inhibitor concentration; and y=% inhibition.
As to `C[C@@H]1C[C@H](N2C(=N)N[C@](C)(c3cccc(NC(=O)c4ccc(F)cc4)c3Cl)CC2=O)CCO1` (relative stereo) [Example 3, N-(2-Chloro-3-{(4S)-2-imino-4-methyl-1-[(2R*,4R*)-2-methyl-tetrahydropyran-4-yl]-6-oxo-hexahydropyrimidin-4-yl]phenyl)-4-fluorobenzamide hydrochloride], the half-maximal inhibitory concentration (IC50) was found to be 132 nM.
For `C[C@@H]1C[C@H](N2C(=N)N[C@](C)(c3cccc(NC(=O)c4ccc(F)cc4F)c3Cl)CC2=O)CCO1` (relative stereo) [Example 4, N-(2-Chloro-3-{(4S)-2-imino-4-methyl-1-[(2R*,4R*)-2-methyl-tetrahydropyran-4-yl]-6-oxo-hexahydropyrimidin-4-yl]phenyl)-2,4-difluorobenzamide hydrochloride], the IC50 came to 23 nM.
With `C[C@@H]1C[C@H](N2C(=N)N[C@](C)(c3cccc(NC(=O)c4ccncc4)c3Cl)CC2=O)CCO1` (relative stereo) [Example 5, N-(2-Chloro-3-{(4S)-2-imino-4-methyl-1-[(2R*,4R*)-2-methyl-tetrahydropyran-4-yl]-6-oxo-hexahydropyrimidin-4-yl]phenyl)-pyridine-4-carboxamide hydrochloride] the figure was 285 nM; with `C[C@@H]1C[C@H](N2C(=N)N[C@](C)(c3cccc(NC(=O)c4ccccn4)c3Cl)CC2=O)CCO1` (relative stereo) [Example 6, N-(2-Chloro-3-{(4S)-2-imino-4-methyl-1-[(2R*,4R*)-2-methyl-tetrahydropyran-4-yl]-6-oxo-hexahydropyrimidin-4-yl}phenyl)-pyridine-2-carboxamide hydrochloride], 33 nM; with `C[C@@H]1C[C@H](N2C(=N)N[C@](C)(c3cccc(NC(=O)c4cccnc4)c3Cl)CC2=O)CCO1` (relative stereo) [Example 7, N-(2-Chloro-3-{(4S)-2-imino-4-methyl-1-[(2R*,4R*)-2-methyl-tetrahydropyran-4-yl]-6-oxo-hexahydropyrimidin-4-yl}phenyl)-pyridine-3-carboxamide hydrochloride], 29 nM.
On to `C[C@@H]1C[C@H](N2C(=N)N[C@](C)(c3cccc(NC(=O)c4ccn(C)n4)c3Cl)CC2=O)CCO1` (relative stereo) [Example 8, N-(2-Chloro-3-{(4S)-2-imino-4-methyl-1-[(2R*,4R*)-2-methyl-tetrahydropyran-4-yl]-6-oxo-hexahydropyrimidin-4-yl}phenyl)-1-methylpyrazole-3-carboxamide hydrochloride], for which the IC50 was 260 nM.
`C[C@@H]1C[C@H](N2C(=N)N[C@](C)(c3cccc(NC(=O)c4ccc(Cl)cc4)c3Cl)CC2=O)CCO1` (relative stereo) [Example 9, 4-Chloro-N-(2-chloro-3-{(4S)-2-imino-4-methyl-1-[(2R*,4R*)-2-methyltetrahydropyran-4-yl]-6-oxo-hexahydropyrimidin-4-yl}phenyl)-benzamide hydrochloride] displayed an IC50 of 52 nM.
The molecule `C[C@@H]1C[C@H](N2C(=N)N[C@](C)(c3cccc(NC(=O)c4ccc(C#N)cc4)c3Cl)CC2=O)CCO1` (relative stereo) [Example 10, N-(2-Chloro-3-{(4S)-2-imino-4-methyl-1-[(2R*,4R*)-2-methyl-tetrahydropyran-4-yl]-6-oxo-hexahydropyrimidin-4-yl]phenyl)-4-cyanobenzamide hydrochloride] yielded an IC50 of 290 nM.
As for `C[C@@H]1C[C@H](N2C(=N)N[C@](C)(c3cccc(NC(=O)c4cccc(Cl)c4)c3Cl)CC2=O)CCO1` (relative stereo) [Example 11, 3-Chloro-N-(2-chloro-3-{(4S)-2-imino-4-methyl-1-[(2R*,4R*)-2-methyltetrahydropyran-4-yl]-6-oxo-hexahydropyrimidin-4-yl]phenyl)-benzamide hydrochloride], inhibition was half-maximal at 9 nM (IC50).
With `C[C@@H]1C[C@H](N2C(=N)N[C@](C)(c3cccc(NC(=O)c4ccccc4Cl)c3Cl)CC2=O)CCO1` (relative stereo) [Example 12, 2-Chloro-N-(2-chloro-3-{(4S)-2-imino-4-methyl-1-[(2R*,4R*)-2-methyltetrahydropyran-4-yl]-6-oxo-hexahydropyrimidin-4-yl}phenyl)-benzamide hydrochloride], the IC50 turned out to be 23 nM.
The molecule `C[C@@H]1C[C@H](N2C(=N)N[C@](C)(c3cccc(NC(=O)c4ccc(F)cn4)c3Cl)CC2=O)CCO1` (relative stereo) [Example 13, N-(2-Chloro-3-{(4S)-2-imino-4-methyl-1-[(2R*,4R*)-2-methyl-tetrahydropyran-4-yl]-6-oxo-hexahydropyrimidin-4-yl]phenyl)-5-fluoropyridine-2-carboxamide hydrochloride] registered an IC50 of 11 nM.
`C[C@@H]1C[C@H](N2C(=N)N[C@](C)(c3cccc(NC(=O)c4cnccn4)c3Cl)CC2=O)CCO1` (relative stereo) [Example 14, N-(2-Chloro-3-{(4S)-2-imino-4-methyl-1-[(2R*,4R*)-2-methyl-tetrahydropyran-4-yl]-6-oxo-hexahydropyrimidin-4-yl}phenyl)-pyrazine-2-carboxamide hydrochloride]: the IC50 was 14 nM.
Molecule `C[C@@H]1C[C@H](N2C(=N)N[C@](C)(c3cccc(NC(=O)c4ncccn4)c3Cl)CC2=O)CCO1` (relative stereo) [Example 15, N-(2-Chloro-3-{(4S)-2-imino-4-methyl-1-[(2R*,4R*)-2-methyl-tetrahydropyran-4-yl]-6-oxo-hexahydropyrimidin-4-yl}phenyl)-pyrimidine-2-carboxamide hydrochloride] showed an IC50 of 37 nM.
For the molecule `C[C@@H]1C[C@H](N2C(=N)N[C@](C)(c3cccc(NC(=O)c4ccncn4)c3Cl)CC2=O)CCO1` (relative stereo) [Example 16, N-(2-Chloro-3-{(4S)-2-imino-4-methyl-1-[(2R*,4R*)-2-methyl-tetrahydropyran-4-yl]-6-oxo-hexahydropyrimidin-4-yl}phenyl)-pyrimidine-4-carboxamide hydrochloride], the IC50 turned out to be 23 nM.
Consider `Cc1nonc1C(=O)Nc1cccc([C@]2(C)CC(=O)N([C@@H]3CCO[C@H](C)C3)C(=N)N2)c1Cl` (relative stereo) [Example 17, N-(2-Chloro-3-{(4S)-2-imino-4-methyl-1-[(2R*,4R*)-2-methyl-tetrahydropyran-4-yl]-6-oxo-hexahydropyrimidin-4-yl}phenyl)-4-methyl-1,2,5-oxadiazole-3-carboxamide hydrochloride], for which the IC50 turned out to be 12 nM.
`C[C@@H]1C[C@H](N2C(=N)N[C@](C)(c3cccc(NC(=O)c4ccc(C(F)(F)F)cn4)c3Cl)CC2=O)CCO1` (relative stereo) [Example 18, N-(2-Chloro-3-{(4S)-2-imino-4-methyl-1-[(2R*,4R*)-2-methyl-tetrahydropyran-4-yl]-6-oxo-hexahydropyrimidin-4-yl}phenyl)-5-(trifluoromethyl)pyridine-2-carboxamide hydrochloride] came in with an IC50 of 46 nM.
The molecule `C[C@@H]1C[C@H](N2C(=N)N[C@](C)(c3cccc(NC(=O)c4cccnn4)c3Cl)CC2=O)CCO1` (relative stereo) [Example 19, N-(2-Chloro-3-{(4S)-2-imino-4-methyl-1-[(2R*,4R*)-2-methyl-tetrahydropyran-4-yl]-6-oxo-hexahydropyrimidin-4-yl]phenyl)-pyridazine-3-carboxamide hydrochloride] displayed an IC50 of 31 nM.
For `C[C@@H]1C[C@H](N2C(=N)N[C@](C)(c3cccc(NC(=O)c4cccc(C#N)c4)c3Cl)CC2=O)CCO1` (relative stereo) [Example 20, N-(2-Chloro-3-{(4S)-2-imino-4-methyl-1-[(2R*,4R*)-2-methyl-tetrahydropyran-4-yl]-6-oxo-hexahydropyrimidin-4-yl}phenyl)-3-cyanobenzamide hydrochloride], the IC50 was 8 nM.
On to `C[C@@H]1C[C@H](N2C(=N)N[C@](C)(c3cccc(NC(=O)c4ccc(C(F)(F)F)nc4)c3Cl)CC2=O)CCO1` (relative stereo) [Example 21, N-(2-Chloro-3-{(4S)-2-imino-4-methyl-1-[(2R*,4R*)-2-methyl-tetrahydropyran-4-yl]-6-oxo-hexahydropyrimidin-4-yl}phenyl)-6-(trifluoromethyl)pyridine-3-carboxamide hydrochloride], for which the IC50 was determined as 231 nM.

Usually IC50 stands for the concentration that gives 50% inhibition. Low values mean greater potency in that assay, high ones weaker potency in that assay.

The record behind these values is US20220289685A1, “ANTIMALARIAL HEXAHYDROPYRIMIDINE ANALOGUES” (UCB BIOPHARMA SRL, priority 2019, published 2022).
